# Source: patent EP4778922A1, “BICYCLIC COMPOUND, AND PREPARATION METHOD THEREFOR AND PHARMACEUTICAL USE THEREOF” (Shanghai Jeyou Pharmaceutical Co., Ltd., priority 2023, dated 2025)
# Key:
# LNCaP cells = experiment: Cell proliferation inhibition assay in LNCaP cells (0.2 nM DHT, CellTiter-Glo, 7 days); assay type: cell-based, human; settings: Homo sapiens, 168 h
# Description: • 1. The human prostate cancer cell lines 22RV1 and LNCaP were purchased from ATCC. […] The cell concentration was adjusted to an appropriate concentration (determined based on the results of cell density optimization experiments), and the cells were seeded into a 96-well plate. A 100 µL cell suspension was added, resulting in 3000 cells per well. […] On the second day, for 22Rv1 cells, test compounds at different concentrations were added, and the cells were incubated at 37°C in a 5% CO2 incubator for 7 days; for LNCaP cells, test compounds at different concentrations were added first, and after 1 hour of treatment, 0.2 nM DHT was added. The cells were then incubated at 37°C in a 5% CO2 incubator for 7 days. • 4. After the incubation period, a volume of CellTiter-Glo detection reagent equal to the volume of the culture medium was added to each well. The plate was shaken and mixed thoroughly for 5 minutes, then incubated at room temperature for 10 minutes. Readings were taken using a PerkinElmer EnVision microplate reader. • 5.
# The IC50 curve was fitted and the IC50 value was calculated using the software GraphPad Prism 8 with the calculation formula XY-analysis/Nonlinear regression (curve fit)/Dose response-Inhibition/log (inhibitor) vs. response-Variable slope (four parameters).
# 22RV1 cells = experiment: Cell proliferation inhibition assay in 22RV1 cells (CellTiter-Glo, 7 days); assay type: cell-based, human; settings: Homo sapiens
# In short: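 LNCaP and 22RV1 human prostate cancer cells, 3000 per well, exposed to graded compound for 7 days at 37°C, 5% CO2; LNCaP got 0.2 nM DHT 1 h after compound. Viability by CellTiter-Glo luminescence; IC50 from four-parameter variable-slope fit.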
# [1] = Mouse pharmacokinetic test; assay type: in vivo, ICR mice; settings: plasma, po, 30 mg/kg, PO-30mpk; for Tmax: read-out: Tmax
# Description: Formulation preparation: The dosing solutions were prepared on the day of administration.
# Six healthy male naive ICR mice weighing 25-30 g were selected and divided into two groups (intravenous and oral groups), with three mice in each group, and administered a single dose. […] Feeding was resumed 4 h after administration. Timing was initiated following intravenous and oral administration. […] The collected whole blood was briefly vortexed twice for mixing, placed on wet ice, and centrifuged at 4°C and 8000 rpm for 5 min within 1 h. The supernatant plasma was collected and stored at -80°C until processing and analysis. Table 3: Pharmacokinetics in mice
IC50 (LNCaP cells) [nM],IC50 (22RV1 cells; 168 h) [nM],Compound,further results
970,,"CC(C)(c1ccc(-c2ncc(OCc3ccnc(N4CC(S(C)(=N)=O)C4)n3)cn2)cc1)c1cc(Cl)c(OCCCl)c(C#N)c1 (single isomer, unassigned) [Compound 366A]",
910,,CC(C)(c1ccc(-c2ccc(OCC34CC(c5cnc(P(C)(C)=O)nc5)(C3)C4)cn2)cc1)c1cc(Cl)c(OCCCl)c(C#N)c1 [Compound 367],
660,,CC(C)(c1ccc(-c2cnc(OCc3ccnc(N4CC(S(C)(=N)=O)C4)n3)nc2)cc1)c1cc(Cl)c(OCCCl)c(C#N)c1 (stereo not drawn) [Compound 372],
920,,CC(C)(c1ccc(-c2cnc(OCc3ccc(-c4cnc(P(C)(C)=O)nc4)nc3)nc2)cc1)c1cc(Cl)c(OCCCl)c(C#N)c1 [Compound 374],
580,,CC(C)(c1ccc(-c2cnc(COc3ccnc(N4CC(S(C)(=O)=O)C4)n3)nc2)cc1)c1cc(Cl)c(OCCCl)c(C#N)c1 [Compound 383],
970,,CC(C)(c1ccc(-c2ccc(Oc3ncc(-c4cnc(CP(C)(C)=O)nc4)cn3)cc2)cc1)c1cc(Cl)c(OCCCl)c(C#N)c1 [Compound 399],
690,,CC(C)(c1ccc(-c2ccc(OCc3ccnc(N4CC5(C4)CS(=N)(=O)C5)n3)nc2)cc1)c1cc(Cl)c(OCCCl)c(C#N)c1 [Compound 400],
490,,CC(C)(c1ccc(-c2ccc(OCc3ccnc(N4CC5(CCS5(=N)=O)C4)n3)cn2)cc1)c1cc(Cl)c(OCCCl)c(C#N)c1 (stereo not drawn) [Compound 404],
180,,CC(C)(c1ccc(-c2ccc(OCc3cnc(-c4cnc(P(C)(C)=O)nc4)cn3)cc2)cc1)c1cc(Cl)c(OCCCl)c(C#N)c1 [Compound 408],
800,,CC(C)(c1ccc(-c2ccc(OCc3ccnc(N4CC(S(C)(=O)=NC#N)C4)n3)cn2)cc1)c1cc(Cl)c(OCCCl)c(C#N)c1 (stereo not drawn) [Compound 413],
460,,CC(C)(c1ccc(-c2ccc(OCc3ccnc(N4CC(S(C)(=O)=O)C4)n3)nn2)cc1)c1cc(Cl)c(OCCCl)c(C#N)c1 [Compound 423],
940,,CC(C)(c1ccc(-c2ncc(OCc3ccc(-c4cnc(P(C)(C)=O)nc4)nc3)cn2)cc1)c1cc(Cl)c(OCCCl)c(C#N)c1 [Compound 426],
830,,CC(C)(c1ccc(-c2ccc(COc3ccnc(P(C)(C)=O)n3)nc2)cc1)c1cc(Cl)c(OCCCl)c(C#N)c1 [Compound 427],
470,,CC(C)(c1ccc(-c2ccc3c(c2)C(=O)N(Cc2ccnc(P(C)(C)=O)n2)C3)cc1)c1cc(Cl)c(OCCCl)c(C#N)c1 [Compound 439],
950,,CC(=O)c1nccc(COc2cnc(-c3ccc(C(C)(C)c4cc(Cl)c(OCCCl)c(C#N)c4)cc3)cn2)n1 [Compound 441],
160,,CC(C)(c1ccc(-c2ncc(OCc3ccc(-c4ccc(P(C)(C)=O)nn4)cc3)cn2)cc1)c1cc(Cl)c(OCCCl)c(C#N)c1 [Compound 455],
970,,CC(C)(c1ccc(N2CCCc3cc(OCc4ccnc(P(C)(C)=O)n4)ccc32)cc1)c1cc(Cl)c(OCCCl)c(C#N)c1 [Compound 457],
450,,CC(C)(c1ccc(-c2ccc(OCc3ccnc(N4CC(S(C)(=O)=O)C4)n3)cc2)nc1)c1cc(Cl)c(OCCCl)c(C#N)c1 [Compound 460],
580,,CC(C)(c1ccc(-c2ccc(OCc3ccnc(N4CC(S(C)(=N)=O)C4)n3)cc2)nc1)c1cc(Cl)c(OCCCl)c(C#N)c1 (stereo not drawn) [Compound 461],
680,,CC(C)(c1cc(Cl)c(OCCCl)c(C#N)c1)c1ccc(-c2ccc(OCc3ccnc(P(C)(C)=O)n3)cc2)cn1 [Compound 474],
700,,CC(C)(c1cc(Cl)c(OCCCl)c(C#N)c1)c1ccc(-c2ccc(OCc3ccnc(N4CC(S(C)(=N)=O)C4)n3)cn2)cn1 (stereo not drawn) [Compound 475],
780,,CC(C)(c1cc(Cl)c(OCCCl)c(C#N)c1)c1ccc(-c2ccc(OCc3ccnc(N4CC(S(C)(=O)=O)C4)n3)nc2)cn1 [Compound 478],
700,,CC(C)(c1cc(Cl)c(OCCCl)c(C#N)c1)c1ccc(-c2ccc(OCc3ccnc(N4CC(S(C)(=N)=O)C4)n3)nc2)cn1 (stereo not drawn) [Compound 479],

# Further lines, the compound ahead of its results:
Compound,IC50 (LNCaP cells) [nM],IC50 (22RV1 cells; 168 h) [nM],further results
CC(C)(c1ccc(-c2cnc(OCc3ccnc(N4CC5(CCS5(=N)=O)C4)n3)cn2)cc1)c1cc(Cl)c(OCCCl)c(C#N)c1 (racemic) [Compound 375],59,120,
"CC(C)(c1ccc(-c2cnc(OCc3ccnc(N4CC(S(=N)(=O)C5CC5)C4)n3)cn2)cc1)c1cc(Cl)c(OCCCl)c(C#N)c1 (single isomer, unassigned) [Compound 350B]",500,,
CC(C)(c1ccc(-c2ccc(OCc3ccnc(N=S4(=O)CCNCC4)n3)cc2)cc1)c1cc(Cl)c(OCCCl)c(C#N)c1 [Compound 108],300,60,
CC(C)(c1ccc(-c2ccc(OCc3ccnc(N=S4(=O)CCN(CCO)CC4)n3)cc2)cc1)c1cc(Cl)c(OCCCl)c(C#N)c1 [Compound 164],480,45,
CC(C)(c1ccc(-c2ccc(OCc3ccnc(N=S4(=O)CCN(CC(F)F)CC4)n3)cn2)cc1)c1cc(Cl)c(OCCCl)c(C#N)c1 [Compound 179],530,410,
CC(C)(c1ccc(-c2ccc(OCc3ccnc(N4CC(N=S(C)(C)=O)C4)n3)cc2)cc1)c1cc(Cl)c(OCCCl)c(C#N)c1 [Compound 195],460,38,
CC(C)(c1ccc(-c2ccc(OCCOc3nccc(N4CC5(COC5)C4)n3)cc2)cc1)c1cc(Cl)c(OCCCl)c(C#N)c1 [Compound 203],,,"IC50 (LNCaP cells; LNCaP): 440 nM; IC50 (22RV1 cells; 22Rv1, 168 h): 47 nM"
CC(C)(c1ccc(-c2ccc(OCc3ccnc(N4CC5(COC5)C4)n3)nc2)cc1)c1cc(Cl)c(OCCCl)c(C#N)c1 [Compound 209],420,290,
CC(C)(O)CN1CCS(=O)(=Nc2nccc(COc3ccc(-c4ccc(C(C)(C)c5cc(Cl)c(OCCCl)c(C#N)c5)cc4)cc3)n2)CC1 [Compound 254],440,160,
CC(C)(c1ccc(-c2ccc(OCC3CCC4(CC3)CN(c3ccnc(P(C)(C)=O)n3)C4)cc2)cc1)c1cc(Cl)c(OCCCl)c(C#N)c1 [Compound 260],620,170,
CC(C)(c1ccc(-c2ccc(OCc3ccnc(N=S4(=O)CCN(CC(F)F)CC4)n3)nc2)cc1)c1cc(Cl)c(OCCCl)c(C#N)c1 [Compound 264],980,250,
C[C@H](Cl)COc1c(Cl)cc(C(C)(C)c2ccc(-c3ccc(OCc4ccnc(P(C)(C)=O)n4)cc3)cc2)cc1C#N [Compound 283],,,"AUC(0-inf) [1]: 277 µg·h/mL; Cmax [1]: 18700 ng/mL; half-life [1]: 9.3 h; Tmax [1]: 4 h; IC50 (22RV1 cells; 22Rv1, 168 h): 840 nM"
CC(C)(c1ccc(-c2ccc(OCc3ccnc(N=S4(=O)CCC(F)(F)CC4)n3)cc2)cc1)c1cc(Cl)c(OCCCl)c(C#N)c1 [Compound 288],550,74,
CC(C)(c1ccc(-c2ccc(OCCN3CCS(=O)(=O)CC3)cc2)cc1)c1cc(Cl)c(OCCCl)c(C#N)c1 [Compound 298],760,190,
CC(C)(c1ccc(-c2ccc(OCC3CC4(C3)CS(=N)(=O)C4)cc2)cc1)c1cc(Cl)c(OCCCl)c(C#N)c1 (stereo not drawn) [Compound 308],,,"AUC(0-inf) [1]: 186 µg·h/mL; Cmax [1]: 14300 ng/mL; half-life [1]: 4.45 h; Tmax [1]: 3 h; IC50 (22RV1 cells; 22Rv1, 168 h): 750 nM"
CC(C)(c1ccc(-c2ccc(OCc3ccc(-c4cnc(N5CC6(C5)CS(=N)(=O)C6)nc4)cc3)cc2)cc1)c1cc(Cl)c(OCCCl)c(C#N)c1 [Compound 317],270,1040,
CC(C)(c1ccc(-c2cnc(OCC34CC(c5cnc(P(C)(C)=O)nc5)(C3)C4)cn2)cc1)c1cc(Cl)c(OCCCl)c(C#N)c1 [Compound 322],120,1050,
CC(C)(c1ccc(-c2ccc(OCC3CCC(CN4CC5(COC5)C4)CC3)cc2)cc1)c1cc(Cl)c(OCCCl)c(C#N)c1 (stereo not drawn) [Compound 333],680,320,
CC(C)(c1ccc(-c2cnc(OCc3ccnc(N4CC(S(C)(=O)=O)C4)n3)nc2)cc1)c1cc(Cl)c(OCCCl)c(C#N)c1 [Compound 342],500,860,
CC(C)(c1ccc(-c2cccc3c(OCc4ccnc(P(C)(C)=O)n4)nccc23)cc1)c1cc(Cl)c(OCCCl)c(C#N)c1 [Compound 345],230,,
CC(C)(c1ccc(-c2ccc(OCc3ccnc(N4CC(S(=N)(=O)C5CC5)C4)n3)nc2)cc1)c1cc(Cl)c(OCCCl)c(C#N)c1 (stereo not drawn) [Compound 356],410,790,
CC(C)(c1ccc(-c2ccc(OCc3ccnc(N4CC(S(C)(=N)=O)C4)n3)nc2)cc1)c1cc(Cl)c(OCCCl)c(C#N)c1 (stereo not drawn) [Compound 357],,,"IC50 (LNCaP cells; LNCaP): 440 nM; IC50 (22RV1 cells; 22Rv1, 168 h): 830 nM"
CC(C)(c1ccc(-c2ccc(OCc3ccnc(P(C)(C)=O)n3)cc2)nc1)c1cc(Cl)c(OCCCl)c(C#N)c1 [Compound 459],,,IC50 (LNCaP cells; LNCaP): 990 nM
